# Assay results from US11254668B2, “Pyrazolo[1,5-A]pyrazin-4-yl and related derivatives” (Pfizer Inc., priority 2017, dated 2022).
# Like-named read-outs stand apart in the source and are kept apart here.
# Key:
# Assay type in all cases: biochemical
# TYK2 = TYK2 (Homo sapiens (Human), UniProt P29597); assay: JAK Caliper Enzyme Assay at 1 mM ATP, TYK2
# Outline: (§1)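 Mobility-shift microfluidic read-out: substrate and phosphopeptide peaks separated, % conversion = product/(product+substrate). Reaction used recombinant human kinase domain, synthetic peptide, 1 mM ATP, RT incubation to 20–30% turnover, quenched with EDTA. Percent effect versus DMSO and positive controls, plotted against concentration.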
# JAK1 = JAK1 (Homo sapiens (Human), UniProt P23458); assay: JAK Caliper Enzyme Assay at 1 mM ATP, JAK1
# JAK1, sequence (P23458 875-1153): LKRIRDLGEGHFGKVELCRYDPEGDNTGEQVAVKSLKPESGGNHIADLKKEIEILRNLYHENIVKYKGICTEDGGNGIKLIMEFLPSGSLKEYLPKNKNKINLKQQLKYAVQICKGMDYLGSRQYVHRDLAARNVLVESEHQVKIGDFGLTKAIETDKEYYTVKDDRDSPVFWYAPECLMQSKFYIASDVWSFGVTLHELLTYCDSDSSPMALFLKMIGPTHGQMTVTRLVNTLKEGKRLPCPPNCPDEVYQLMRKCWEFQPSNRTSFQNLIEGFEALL
# Outline: (§2)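 Recombinant human kinase domains phosphorylate a fluorescent synthetic peptide at 1 mM ATP, room temperature, with enzyme and time tuned for 20-30% conversion; EDTA-stopped. Product/substrate separated by microfluidic mobility shift; percent effect versus DMSO and positive controls fitted to IC50 (nM).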
# JAK2 = JAK2 (Homo sapiens (Human), UniProt O60674); assay: JAK Caliper Enzyme Assay at 1 mM ATP, JAK2
# JAK2, sequence (O60674 849-1124): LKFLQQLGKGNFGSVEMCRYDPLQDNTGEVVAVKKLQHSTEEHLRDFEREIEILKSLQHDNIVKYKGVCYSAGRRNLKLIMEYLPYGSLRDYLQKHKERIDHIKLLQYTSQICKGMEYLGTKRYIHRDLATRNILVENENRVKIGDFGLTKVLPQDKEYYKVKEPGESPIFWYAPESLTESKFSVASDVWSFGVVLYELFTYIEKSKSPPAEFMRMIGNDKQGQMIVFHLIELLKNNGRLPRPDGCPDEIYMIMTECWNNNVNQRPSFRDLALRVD
# Outline: as §1
# JAK3 = JAK3 (Homo sapiens (Human), UniProt P52333); assay: JAK Caliper Enzyme Assay at 1 mM ATP, JAK3
# JAK3, sequence (P52333 822-1111): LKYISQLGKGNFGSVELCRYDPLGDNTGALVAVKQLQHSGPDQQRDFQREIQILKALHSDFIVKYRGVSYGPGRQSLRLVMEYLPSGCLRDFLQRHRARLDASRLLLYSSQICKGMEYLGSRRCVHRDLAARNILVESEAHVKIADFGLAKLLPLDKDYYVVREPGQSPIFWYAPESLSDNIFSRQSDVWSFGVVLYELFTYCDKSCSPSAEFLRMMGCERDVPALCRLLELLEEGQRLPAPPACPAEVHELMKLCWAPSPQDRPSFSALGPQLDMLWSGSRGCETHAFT
# Outline: as §2
# TYK2, sequence (P29597 897-1176): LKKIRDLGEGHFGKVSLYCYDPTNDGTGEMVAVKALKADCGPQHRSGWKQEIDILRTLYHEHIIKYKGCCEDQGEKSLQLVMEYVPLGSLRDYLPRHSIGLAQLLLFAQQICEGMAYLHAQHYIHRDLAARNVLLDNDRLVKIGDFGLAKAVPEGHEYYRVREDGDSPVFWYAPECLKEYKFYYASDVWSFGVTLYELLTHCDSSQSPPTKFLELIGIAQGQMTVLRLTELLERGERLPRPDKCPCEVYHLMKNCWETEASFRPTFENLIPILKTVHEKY
Structure (SMILES),IC50 (TYK2) [nM],IC50 (JAK1) [nM],IC50 (JAK2) [nM],IC50 (JAK3) [nM],IC50 (TYK2; JAK Caliper enzyme assay) [nM],IC50 (JAK1; JAK Caliper enzyme assay) [nM],IC50 (JAK2; JAK Caliper enzyme assay) [nM],IC50 (JAK3; JAK Caliper enzyme assay) [nM]
"N#CC[C@]1(n2ncc(-c3cc(-c4cc[nH]n4)cc4ncccc34)n2)C[C@H](C#N)C1 [Example 302, trans-3-(cyanomethyl)-3-{4-[7-(1H-pyrazol-3-yl)quinolin-5-yl]-2H-1,2,3-triazol-2-yl}cyclobutanecarbonitrile]",20,436,173,> 10000,,,,
"N#CC[C@]1(n2ncc(-c3cc(-c4cc(CO)[nH]n4)cc4ncccc34)n2)C[C@H](C#N)C1 [Example 308, trans-3-(cyanomethyl)-3-(4-{7-[5-(hydroxymethyl)-1H-pyrazol-3-yl]quinolin-5-yl}-2H-1,2,3-triazol-2-yl)cyclobutanecarbonitrile]",18,719,131,> 10000,,,,
"Cn1cc(-c2cc(-c3ccn(C4(CC#N)CN(S(C)(=O)=O)C4)n3)c3cccnc3c2)cn1 [Example 286, [3-{3-[7-(1-methyl-1H-pyrazol-4-yl)quinolin-5-yl]-1H-pyrazol-1-yl}-1-(methylsulfonyl)azetidin-3-yl]acetonitrile]",212,> 10000,1810,> 10000,,,,
"N#CC[C@]1(n2ncc(-c3cc(-c4ccnc(N)c4)cc4ncccc34)n2)C[C@H](C#N)C1 [Example 367, trans-3-{4-[7-(2-aminopyridin-4-yl)quinolin-5-yl]-2H-1,2,3-triazol-2-yl}-3-(cyanomethyl)cyclobutanecarbonitrile]",93,2800,1290,> 10000,,,,
"C[C@]1(C#N)C[C@@](CC#N)(n2ccc(-c3nc(-c4cc[nH]n4)cc4ncccc34)n2)C1 [Example 35, cis-3-(cyanomethyl)-1-methyl-3-{3-[7-(1H-pyrazol-3-yl)-1,6-naphthyridin-5-yl]-1H-pyrazol-1-yl}cyclobutanecarbonitrile]",44,569,339,> 10000,,,,
"N#CCC1(n2ncc(-c3cc(-c4ccc(C(=O)O)cc4)cc4ncccc34)n2)CC(C#N)C1 (stereo not drawn) [Example 436, 4-(5-{2-[trans-3-cyano-1-(cyanomethyl)cyclobutyl]-2H-1,2,3-triazol-4-yl}quinolin-7-yl)benzoic acid]",,,,,75,1490,1130,> 10000
"Cc1cc(-c2cc(-c3cnn([C@]4(CC#N)C[C@H](C#N)C4)c3)n3ccnc3c2)n[nH]1 [Example 462, cis-3-(cyanomethyl)-3-{4-[7-(5-methyl-1H-pyrazol-3-yl)imidazo[1,2-a]pyridin-5-yl]-1H-pyrazol-1-yl}cyclobutanecarbonitrile]",,,,,20,873,188,> 10000

# Further compounds by falling IC50 (TYK2), results first:
IC50 (TYK2) [nM],IC50 (JAK1) [nM],IC50 (JAK2) [nM],IC50 (JAK3) [nM],Structure (SMILES),IC50 (TYK2; JAK Caliper enzyme assay) [nM],IC50 (JAK1; JAK Caliper enzyme assay) [nM],IC50 (JAK2; JAK Caliper enzyme assay) [nM],IC50 (JAK3; JAK Caliper enzyme assay) [nM]
14,502,91,> 10000,"Cc1cc(-c2cc3ncccc3c(-c3ccn([C@]4(CC#N)C[C@@H](C#N)C4)n3)n2)n[nH]1 [Example 43, trans-3-(cyanomethyl)-3-{3-[7-(5-methyl-1H-pyrazol-3-yl)-1,6-naphthyridin-5-yl]-1H-pyrazol-1-yl}cyclobutanecarbonitrile]",,,,
14,425,71,> 10000,"Cn1cc(-c2cc3ncccc3c(-c3ccn(C4(CC#N)CN(CC#N)C4)n3)n2)cn1 [Example 100, 2,2′-(3-{3-[7-(1-methyl-1H-pyrazol-4-yl)-1,6-naphthyridin-5-yl]-1H-pyrazol-1-yl}azetidine-1,3-diyl)diacetonitrile]",,,,
9,182,28,3260,"Cn1cc(-c2cc3ncccc3c(-c3cn(C4(CC#N)CN(CC(F)(F)F)C4)nn3)n2)cn1 [Example 280, [3-{4-[7-(1-methyl-1H-pyrazol-4-yl)-1,6-naphthyridin-5-yl]-1H-1,2,3-triazol-1-yl}-1-(2,2,2-trifluoroethyl)azetidin-3-yl]acetonitrile]",,,,
